Assay results taken from patent publication US9326973B2, “Hepatitis C virus inhibitors” (priority 2012, dated 2016).

system: HCV replicon, genotype-1a variant with glutamine 30 changed to glutamate in the NS5A protein; test: microbe, parasite or virus in culture; assay type: cell-based, HCV genotype 1a; settings: HCV replicon genotype 1a Q30E (Q→E) variant; test compound titrated with an NS5A-targeting compound (BMS-790052 fixed at 200 nM); ranking of synergist activity
Procedure, shortened: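 Synergy was assessed by combining several fixed amounts of an NS5A-targeting compound with a titration of the second compound of interest.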

SMILES	Fold-Synergistic 1a (Q30E) [fold]
CC(C)N(C(=O)OC1(C(=O)N[C@H](c2nc(-c3ccc(-c4ccc(-c5c[nH]c([C@@H](NC(=O)C6(OC(=O)N(C(C)C)C(C)C)CC6)C(C)(C)C)n5)cc4)cc3)c[nH]2)C(C)(C)C)CC1)C(C)C [Compound L-38]	>100
CC(C)(C)[C@H](NC(=O)C1(O)CCC1)c1nc(-c2ccc(-c3ccc(-c4c[nH]c([C@@H](NC(=O)C5(O)CCC5)C(C)(C)C)n4)cc3)cc2)c[nH]1 [Compound L-71]	>100
CC(C)(C)[C@H](NC(=O)C1(n2cncn2)CC1)c1nc(-c2ccc(-c3ccc(-c4c[nH]c([C@@H](NC(=O)C5(n6cncn6)CC5)C(C)(C)C)n4)cc3)cc2)c[nH]1 [Compound L-33]	>100
CC1(C(=O)N[C@H](c2nc(-c3ccc(-c4ccc(-c5c[nH]c([C@@H](NC(=O)C6(C)CC6)C(C)(C)C)n5)cc4)cc3)c[nH]2)C(C)(C)C)CC1 [Compound L-45]	>100
CC(C)[C@H](NC(=O)[C@@]1(C)CC(F)(F)CO1)c1nc(-c2ccc(-c3ccc(-c4c[nH]c([C@@H](NC(=O)[C@@]5(C)CC(F)(F)CO5)C(C)C)n4)cc3)cc2)c[nH]1 [Compound Y-80]	>100
CC(C)(C)[C@H](NC(=O)C1(OC(=O)N2CCCCC2)CC1)c1nc(-c2ccc(-c3ccc(-c4c[nH]c([C@@H](NC(=O)C5(OC(=O)N6CCCCC6)CC5)C(C)(C)C)n4)cc3)cc2)c[nH]1 [Compound L-28]	>100
CC(C)CC(=O)NC1(c2nc(-c3ccc(-c4ccc(-c5c[nH]c(C6(NC(=O)CC(C)C)CCC6)n5)cc4)cc3)c[nH]2)CCC1 [Compound N-11]	<10
CC(C)(C)[C@H](NC(=O)C1(CF)CCCCO1)c1nc(-c2ccc(-c3ccc(-c4c[nH]c([C@@H](NC(=O)C5(CF)CCCCO5)C(C)(C)C)n4)cc3)cc2)c[nH]1 (some centres unmarked) [Compound P-178]	>100
CC(C)(C)[C@H](NC(=O)[C@@H]1COCCN1CC(F)(F)F)c1nc(-c2ccc(-c3ccc(-c4c[nH]c([C@@H](NC(=O)[C@@H]5COCCN5CC(F)(F)F)C(C)(C)C)n4)cc3)cc2)c[nH]1 [Compound L-68]	>100
CC(C)[C@H](NC(=O)[C@@]1(C)CC(F)(F)CCO1)c1nc(-c2ccc(-c3ccc(-c4c[nH]c([C@@H](NC(=O)[C@@]5(C)CC(F)(F)CCO5)C(C)C)n4)cc3)cc2)c[nH]1 [Compound Y-79]	>100
Cc1ccc(S(=O)(=O)N[C@H](c2ncc(-c3ccc(-c4ccc(-c5cnc([C@@H](NS(=O)(=O)c6ccc(C)cc6)C(C)C)[nH]5)cc4)cc3)[nH]2)C(C)C)cc1 [Compound Y-58]	>100
O=C(N1CCC[C@H]1c1ncc(-c2ccc(-c3ccc(-c4cnc([C@@H]5CCCN5C(=O)C5(c6ccccc6)CC5)[nH]4)cc3)cc2)[nH]1)C1(c2ccccc2)CC1 [Compound S-159]	<10
CCN(CCC#N)C(=O)C(C)(C)C(=O)N[C@H](c1nc(-c2ccc(-c3ccc(-c4c[nH]c([C@@H](NC(=O)C(C)(C)C(=O)N(CC)CCC#N)C(C)(C)C)n4)cc3)cc2)c[nH]1)C(C)(C)C [Compound W-158]	>100
O=C(Cc1ccccn1)N1CCC[C@H]1c1ncc(-c2ccc(-c3ccc(-c4cnc([C@@H]5CCCN5C(=O)Cc5ccccn5)[nH]4)cc3)cc2)[nH]1 [Compound S-149]	<10
Cc1nnc(C(=O)N[C@H](c2nc(-c3ccc(-c4ccc(-c5c[nH]c([C@@H](NC(=O)c6nnc(C)o6)C(C)(C)C)n5)cc4)cc3)c[nH]2)C(C)(C)C)o1 [Compound L-89]	>10
CO[C@](C(=O)N[C@H](c1nc(-c2ccc(-c3ccc(-c4c[nH]c([C@@H](NC(=O)[C@@](OC)(c5ccccc5)C(F)(F)F)C(C)(C)C)n4)cc3)cc2)c[nH]1)C(C)(C)C)(c1ccccc1)C(F)(F)F [Compound P-141]	>100
O=C(Cc1ccc(Oc2ccccc2)cc1)N1CCC[C@H]1c1ncc(-c2ccc(-c3ccc(-c4cnc([C@@H]5CCCN5C(=O)Cc5ccc(Oc6ccccc6)cc5)[nH]4)cc3)cc2)[nH]1 [Compound S-154]	>10
CC(C)[C@H](NC(=O)[C@@]1(C)CCCCO1)c1nc(-c2ccc(-c3ccc(-c4c[nH]c([C@@H](NC(=O)[C@@]5(C)CCCCO5)C(C)C)n4)cc3)cc2)c[nH]1 [Compound P-184]	>100
O=C(c1nccc2c(Cl)cccc12)N1CCC[C@H]1c1ncc(-c2ccc(-c3ccc(-c4cnc([C@@H]5CCCN5C(=O)c5nccc6c(Cl)cccc56)[nH]4)cc3)cc2)[nH]1 [Compound S-206]	>100
CC(C)[C@H](NC(=O)C1CC2(C1)OCCO2)c1nc(-c2ccc(-c3ccc(-c4c[nH]c([C@@H](NC(=O)C5CC6(C5)OCCO6)C(C)C)n4)cc3)cc2)c[nH]1 (some centres unmarked) [Compound W-176]	>100
CC(C)(C)[C@H](NC(=O)[C@H]1C[C@](C)(O)C1)c1nc(-c2ccc(-c3ccc(-c4c[nH]c([C@@H](NC(=O)[C@H]5C[C@](C)(O)C5)C(C)(C)C)n4)cc3)cc2)c[nH]1 [Compound W-170]	>100

SMILES	Fold-Synergistic 1a (Q30E) [fold]
O=C(Cc1c[nH]c2ccccc12)N1CCC[C@H]1c1ncc(-c2ccc(-c3ccc(-c4cnc([C@@H]5CCCN5C(=O)Cc5c[nH]c6ccccc56)[nH]4)cc3)cc2)[nH]1 [Compound S-148]	>10
CC(C)(C)[C@H](NC(=O)C(C)(C)n1ncnn1)c1nc(-c2ccc(-c3ccc(-c4c[nH]c([C@@H](NC(=O)C(C)(C)n5ncnn5)C(C)(C)C)n4)cc3)cc2)c[nH]1 [Compound S-276]	>100
CC(C)(C)[C@H](NC(=O)C1(c2ccc(F)cc2)CC1(C)C)c1nc(-c2ccc(-c3ccc(-c4c[nH]c([C@@H](NC(=O)C5(c6ccc(F)cc6)CC5(C)C)C(C)(C)C)n4)cc3)cc2)c[nH]1 (some centres unmarked) [Compound S-285]	>100
CC(C)(C)[C@H](NC(=O)C(F)(F)C1CCCCO1)c1nc(-c2ccc(-c3ccc(-c4c[nH]c([C@@H](NC(=O)C(F)(F)C5CCCCO5)C(C)(C)C)n4)cc3)cc2)c[nH]1 (some centres unmarked) [Compound P-166]	>100
COC(=O)N1CCC(F)(F)C[C@H]1C(=O)N[C@H](c1nc(-c2ccc(-c3ccc(-c4c[nH]c([C@@H](NC(=O)[C@@H]5CC(F)(F)CCN5C(=O)OC)C(C)(C)C)n4)cc3)cc2)c[nH]1)C(C)(C)C [Compound L-43]	>100
CC(C)(C)[C@H](NC(=O)CN1CCOC1=O)c1nc(-c2ccc(-c3ccc(-c4c[nH]c([C@@H](NC(=O)CN5CCOC5=O)C(C)(C)C)n4)cc3)cc2)c[nH]1 [Compound L-25]	>10
CC(C)CC(=O)N[C@@H](c1ccccc1)c1nc(-c2ccc(-c3ccc(-c4c[nH]c([C@@H](NC(=O)CC(C)C)c5ccccc5)n4)cc3)cc2)c[nH]1 [Compound P-5]	>100
CC(C)(C)[C@H](NC(=O)C(F)(F)c1ccccc1)c1nc(-c2ccc(-c3ccc(-c4c[nH]c([C@@H](NC(=O)C(F)(F)c5ccccc5)C(C)(C)C)n4)cc3)cc2)c[nH]1 [Compound S-282]	>100
O=C(Cc1ccccc1F)N1CCC[C@H]1c1ncc(-c2ccc(-c3ccc(-c4cnc([C@@H]5CCCN5C(=O)Cc5ccccc5F)[nH]4)cc3)cc2)[nH]1 [Compound S-178]	<10
COc1ccc(CNC(C)(C)C(=O)N[C@H](c2nc(-c3ccc(-c4ccc(-c5c[nH]c([C@@H](NC(=O)C(C)(C)NCc6ccc(OC)cc6)C(C)(C)C)n5)cc4)cc3)c[nH]2)C(C)(C)C)cc1 [Compound S-267]	>100
CC(C)CC(=O)NC1(c2nc(-c3ccc(-c4ccc(-c5c[nH]c(C6(NC(=O)CC(C)C)CCCC6)n5)cc4)cc3)c[nH]2)CCCC1 [Compound N-12]	<10
O=C(C1CCCCCC1)N1CCC[C@H]1c1ncc(-c2ccc(-c3ccc(-c4cnc([C@@H]5CCCN5C(=O)C5CCCCCC5)[nH]4)cc3)cc2)[nH]1 [Compound S-176]	>10
C=CCC(F)(F)C(=O)N[C@H](c1nc(-c2ccc(-c3ccc(-c4c[nH]c([C@@H](NC(=O)C(F)(F)CC=C)C(C)(C)C)n4)cc3)cc2)c[nH]1)C(C)(C)C [Compound S-287]	>100
C=C[C@@H]1C[C@]1(NC(=O)OC(C)(C)C)C(=O)N[C@H](c1nc(-c2ccc(-c3ccc(-c4c[nH]c([C@@H](NC(=O)[C@@]5(NC(=O)OC(C)(C)C)C[C@H]5C=C)C(C)(C)C)n4)cc3)cc2)c[nH]1)C(C)(C)C [Compound W-7]	>100
CC(C)(C)OC(=O)N1C[C@@H](O)C[C@H]1C(=O)N[C@H](c1nc(-c2ccc(-c3ccc(-c4c[nH]c([C@@H](NC(=O)[C@@H]5C[C@H](O)CN5C(=O)OC(C)(C)C)C5(C)CC5)n4)cc3)cc2)c[nH]1)C1(C)CC1 [Compound W-99]	>100
CC(C)(C)OC(=O)N1CCC[C@]1(C)C(=O)N[C@H](c1nc(-c2ccc(-c3ccc(-c4c[nH]c([C@@H](NC(=O)[C@@]5(C)CCCN5C(=O)OC(C)(C)C)C(C)(C)C)n4)cc3)cc2)c[nH]1)C(C)(C)C [Compound L-15]	>100
CCCCCC(=O)N1CCC[C@H]1c1ncc(-c2ccc(-c3ccc(-c4cnc([C@@H]5CCCN5C(=O)CCCCC)[nH]4)cc3)cc2)[nH]1 [Compound S-181]	>10
CC(C)(C)[C@H](NC(=O)C12CCC(CC1)CO2)c1nc(-c2ccc(-c3ccc(-c4c[nH]c([C@@H](NC(=O)C56CCC(CC5)CO6)C(C)(C)C)n4)cc3)cc2)c[nH]1 [Compound Y-74]	>100
COC(=O)N[C@H](C(=O)N[C@H](c1nc(-c2ccc(-c3ccc(-c4c[nH]c([C@@H](NC(=O)[C@@H](NC(=O)OC)C(C)C)C(C)(C)C)n4)cc3)cc2)c[nH]1)C(C)(C)C)C(C)C [Compound N-35]	>100
CC1([C@H](NC(=O)C2(N3CCC(F)(F)CC3)COC2)c2nc(-c3ccc(-c4ccc(-c5c[nH]c([C@@H](NC(=O)C6(N7CCC(F)(F)CC7)COC6)C6(C)CC6)n5)cc4)cc3)c[nH]2)CC1 [Compound W-62]	>100
